Our source for the IC50 values is PubChem BioAssay AID1361 (SRMLSC, 2008).

This assay in a line: mitochondrial fusion inhibitors, confirmation, cell-based, chemical genetic, wild-type and mutant (AID 1361). As to conditions: Cell-based mitochondrial fusion phenotype, imaging.
[1] abbreviates: mutant cells, measured here: mutant cell line IC50.

Activity calls are given as the source filed them. No rule for the calls is given here.

By IC50 is commonly meant the concentration that gives 50% inhibition. On to `COc1ccc(C2N(c3ccc(Cl)cc3)N=C(C(C)=O)N(C)N2C(C)=O)cc1` (stereo not given), for which the IC50 by setting is: (WT cells) 15.8 µM; under setting [1], over 25 µM.
On to `COc1ccc(CCn2nnnc2C(C(C)C)N2CCN(c3ncccn3)CC2)cc1OC` (stereo not given), for which the IC50 is > 25 µM (inactive) (WT cells) and over 25 µM under setting [1].
In the case of `Fc1ccc(-c2csc3ncnc(N4CCc5ccccc5C4)c23)cc1`, the concentration for half-maximal inhibition (IC50) reads like this: (WT cells) 9.26 µM; under setting [1], over 25 µM.
In the same order, the values of `CCN(Cc1cc2ccc(C)cc2[nH]c1=O)C(=O)c1ccncc1` are > 25 µM (inactive) and over 25 µM.
In the same order, the values of `Cc1cc(N=Cc2cc(Cl)ccc2O)no1` are > 25 µM (inactive) and over 25 µM.
With `Cc1ccc(Cn2ncc3c(N4CCN(c5ccccc5C)CC4)ncnc32)cc1`, the half-maximal inhibitory concentration (IC50) was 7.78 µM (WT cells) and 24.7 µM under setting [1].
As to `CC(C)/C(=N/Nc1ccccc1[N+](=O)[O-])c1ccccc1`, the IC50 runs as follows: (WT cells) > 25 µM (inactive); under setting [1], over 25 µM.
For `O=C(NCc1ccccc1Cl)c1cnccn1`, the IC50 was > 25 µM (inactive) (WT cells) and over 25 µM under setting [1].
Turning to `CC(C)(C)c1ccc(CSc2nnc(-c3ccccn3)n2Cc2ccco2)cc1`, the IC50 (WT cells) was 17.6 µM and the IC50 under setting [1] was over 25 µM.
In the same order, the values of `CCOC(=O)c1cc2c(ccn2C)n1Cc1cc(C)ccc1C` are 25 µM (inactive) and over 25 µM.
In the case of `Cc1cc(C)n(CC(O)Cn2c3ccc(Br)cc3c3cc(Br)ccc32)c(=O)n1` (stereo not given), the half-maximal inhibitory concentration (IC50) by setting is: (WT cells) 11 µM; under setting [1], over 25 µM.
Turning to `CC/C(=C\C1CCCCC1)C(NP(=O)(c1ccccc1)c1ccccc1)c1ccccc1` (stereo not given), the IC50 runs as follows: (WT cells) 7.6 µM; under setting [1], over 25 µM.
In the same order, the values of `CC(C)OC(=O)C(C(=O)C(F)(F)F)c1cc(NS(=O)(=O)c2ccc3ccccc3c2)c2ccccc2c1O` (stereo not given) are 15.1 µM and over 25 µM.
Regarding `CCCCCCc1nc2ccccc2c(=O)n1NC(=O)c1c(O)c2cccc3c2n(c1=O)CCC3`, the IC50 was 10.5 µM (WT cells) and over 25 µM under setting [1].
For the compound `N#Cc1ccccc1Sc1ccccc1C(=O)Nc1ccc(Br)cc1`, the IC50 (WT cells) was > 25 µM (inactive) and the IC50 under setting [1] was over 25 µM.
In the case of `Cc1ccccc1NC1=C(Cl)C(=O)N(C2CCCCC2)C1=O`, the IC50 is, setting by setting: (WT cells) 19.1 µM; under setting [1], over 25 µM.
Take `CCOC(=O)c1c(C)n(C)c2cc(Br)c(C(=O)OC)cc12`: the IC50 runs as follows: (WT cells) > 25 µM (inactive); under setting [1], over 25 µM.
In the same order, the values of `CCOC(=O)C1=C(Nc2ccccc2)CC(C)(O)C(C(=O)OCC)C1c1ccc(Cl)cc1` (stereo not given) are 15.6 µM and over 25 µM.
With `CCN1CCN(CCNC(=O)c2ccc(/C=C3/Sc4ccccc4N(Cc4ccccc4C)C3=O)cc2)CC1`, the IC50 was 15.5 µM (WT cells) and over 25 µM under setting [1].
As for `CCOC(=O)c1c(NC(=O)C(C)N2CCN(C(=O)c3ccco3)CC2)sc2c1CCCC2` (stereo not given), the IC50 by setting is: (WT cells) 10.9 µM; under setting [1], over 25 µM.
